Measurements reported in patent publication US9403832B2, “Pyrazolo[1,5-a]pyrimidine-based compounds, compositions comprising them, and methods of their use” (Lexicon Pharmaceuticals, Inc., priority 2012, dated 2016).

Assays:
AAK1 [1] = molecular target: T1, AAK1 (Homo sapiens, UniProt Q2M2I8); test: P81 filter plate assay; assay type: biochemical; details: full-length human AAK1, Mu2 substrate, 33P-ATP
T1 construct: NP_055726.2
In short: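 Full-length human AAK1 (0.2 nM, 2×) was pre-incubated 10 min at RT with compounds (top concentration 96 μM in the dilution plate), then reacted 1 h at RT with full-length human Mu2 (0.2 μM, 2×), cold ATP (2 μM, 2×) and ³³P-ATP. Reactions were stopped with phosphoric acid and captured on P81 filters for scintillation counting.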

AAK1 [2] = molecular target: T1, AAK1; test: HEK281 cell-based assay (CBA); details: HEK293F cells transfected with full length human AAK1 and AP2M1; phospho-mu2 Western blot; 3 hours incubation
In short: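 HEK293F cells co-transfected with full-length human AAK1/HA and Flag-AP2M1 (mu2), then treated in suspension with compounds (5 concentrations, 3-fold steps) in DMEM+0.5% FBS for 3 hours at 37° C. Phospho-mu2 and total mu2 (anti-Flag) assessed by Western blot.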

T1 sequence (Q2M2I8 1-863 isoform Q2M2I8-2): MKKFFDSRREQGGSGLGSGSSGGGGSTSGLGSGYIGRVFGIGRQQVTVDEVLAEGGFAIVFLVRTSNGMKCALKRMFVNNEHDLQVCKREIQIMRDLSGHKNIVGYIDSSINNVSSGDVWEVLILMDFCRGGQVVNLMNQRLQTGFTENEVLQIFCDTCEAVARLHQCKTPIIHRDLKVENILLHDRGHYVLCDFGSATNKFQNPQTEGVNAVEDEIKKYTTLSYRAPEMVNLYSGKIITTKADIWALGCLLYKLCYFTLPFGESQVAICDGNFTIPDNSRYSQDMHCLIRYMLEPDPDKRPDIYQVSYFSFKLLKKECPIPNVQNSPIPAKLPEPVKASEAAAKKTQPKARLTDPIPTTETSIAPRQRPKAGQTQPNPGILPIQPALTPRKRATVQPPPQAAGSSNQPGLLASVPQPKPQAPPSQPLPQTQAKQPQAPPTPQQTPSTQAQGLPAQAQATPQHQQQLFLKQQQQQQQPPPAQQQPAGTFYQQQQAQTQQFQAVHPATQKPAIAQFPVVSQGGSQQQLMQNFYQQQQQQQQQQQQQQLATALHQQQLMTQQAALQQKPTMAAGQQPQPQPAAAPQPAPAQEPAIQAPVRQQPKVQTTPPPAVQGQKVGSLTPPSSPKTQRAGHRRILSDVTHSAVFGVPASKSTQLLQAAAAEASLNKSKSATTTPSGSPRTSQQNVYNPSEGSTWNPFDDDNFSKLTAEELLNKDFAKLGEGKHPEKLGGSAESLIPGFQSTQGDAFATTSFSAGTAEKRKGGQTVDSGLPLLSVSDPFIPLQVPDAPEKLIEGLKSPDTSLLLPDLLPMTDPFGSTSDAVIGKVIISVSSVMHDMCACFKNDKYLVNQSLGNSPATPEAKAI

Row | SMILES | IC50 (AAK1 [1]) [nM] | IC50 (AAK1 [2]) [nM]
1 | COc1ncccc1-c1cnn2ccc(N3CCN(C(=O)[C@@H](N)CC(C)C)CC3)nc12 [(S)-2-amino-1-(4-(3-(2-methoxypyridin-3-yl)pyrazolo[1,5-a]pyrimidin-5-yl)piperazin-1-yl)-4-methylpentan-1-one] | ≤ 10 | ≤ 10
2 | CC(C)[C@H](N)C(=O)N1CCN(c2ccn3ncc(-c4cccc(F)c4)c3n2)CC1 [(S)-2-amino-1-(4-(3-(3-fluorophenyl)pyrazolo[1,5-a]pyrimidin-5-yl)piperazin-1-yl)-3-methylbutan-1-one] | ≤ 10 | ≤ 10
3 | CC(C)[C@H](N)C(=O)N1CCN(c2ccn3ncc(-c4ccc(F)cc4)c3n2)CC1 [(S)-2-amino-1-(4-(3-(4-fluorophenyl)pyrazolo[1,5-a]pyrimidin-5-yl)piperazin-1-yl)-3-methylbutan-1-one] | ≤ 10 | ≤ 10
4 | COc1ccc(F)cc1-c1cnn2ccc(N3CCN(C(=O)[C@@H](N)C(C)(C)C)CC3)nc12 [(S)-2-amino-1-(4-(3-(5-fluoro-2-methoxyphenyl)pyrazolo[1,5-a]pyrimidin-5-yl)piperazin-1-yl)-3,3-dimethylbutan-1-one] | ≤ 10 | ≤ 10
5 | COc1ccc(F)cc1-c1cnn2ccc(N3CCN(C(=O)[C@@H](N)C(C)C)CC3)nc12 [(S)-2-amino-1-(4-(3-(5-fluoro-2-methoxyphenyl)pyrazolo[1,5-a]pyrimidin-5-yl)piperazin-1-yl)-3-methylbutan-1-one] | ≤ 10 | ≤ 10
6 | COc1ccc(F)cc1-c1cnn2ccc(N3CCN(C(=O)[C@@H](N)CC(C)C)CC3)nc12 [(S)-2-amino-1-(4-(3-(5-fluoro-2-methoxyphenyl)pyrazolo[1,5-a]pyrimidin-5-yl)piperazin-1-yl)-4-methylpentan-1-one] | ≤ 10 | ≤ 10
7 | CC(C)(C)[C@H](N)C(=O)N1CCN(c2ccn3ncc(-c4ccccc4)c3n2)CC1 [(S)-2-amino-3,3-dimethyl-1-(4-(3-phenylpyrazolo[1,5-a]pyrimidin-5-yl)piperazin-1-yl)butan-1-one] | ≤ 10 | ≤ 100
8 | COC[C@H](N)C(=O)N1CCN(c2ccn3ncc(-c4cccnc4OC)c3n2)CC1 [(S)-2-amino-3-methoxy-1-(4-(3-(2-methoxypyridin-3-yl)pyrazolo[1,5-a]pyrimidin-5-yl)piperazin-1-yl)propan-1-one] | ≤ 10 | ≤ 10
9 | CC(C)[C@H](N)C(=O)N1CCN(c2ccn3ncc(-c4ccccc4)c3n2)CC1 [(S)-2-amino-3-methyl-1-(4-(3-phenylpyrazolo[1,5-a]pyrimidin-5-yl)piperazin-1-yl)butan-1-one] | ≤ 10 | ≤ 10
10 | CC(C)C[C@H](N)C(=O)N1CCN(c2ccn3ncc(-c4ccccc4)c3n2)CC1 [(S)-2-amino-4-methyl-1-(4-(3-phenylpyrazolo[1,5-a]pyrimidin-5-yl)piperazin-1-yl)pentan-1-one] | ≤ 10 | ≤ 10
11 | COc1ncccc1-c1cnn2ccc(N3CC[C@H](N(C)C(=O)[C@@H](N)CC(C)C)C3)nc12 [(S)-2-amino-N-((S)-1-(3-(2-methoxypyridin-3-yl)pyrazolo[1,5-a]pyrimidin-5-yl)pyrrolidin-3-yl)-N,4-dimethylpentanamide] | ≤ 10 | ≤ 10
12 | COc1ncccc1-c1cnn2ccc(N3CCN(C(=O)[C@@H]4CCCN4)CC3)nc12 [(S)-(4-(3-(2-methoxypyridin-3-yl)pyrazolo[1,5-a]pyrimidin-5-yl)piperazin-1-yl)(pyrrolidin-2-yl)methanone] | ≤ 10 | ≤ 100
13 | CCOC(=O)N1CCC[C@H]1CNc1ccn2ncc(-c3ccccc3OC)c2n1 [(S)-ethyl 2-(((3-(2-methoxyphenyl)pyrazolo[1,5-a]pyrimidin-5-yl)amino)methyl)pyrrolidine-1-carboxylate] | ≤ 10 | ≤ 10
14 | COc1ncccc1-c1cnn2ccc(N(C)C[C@@H]3CCCN3C(=O)OC(C)C)nc12 [(S)-isopropyl 2-(((3-(2-methoxypyridin-3-yl)pyrazolo[1,5-a]pyrimidin-5-yl)(methyl)amino)methyl)pyrrolidine-1-carboxylate] | ≤ 10 | ≤ 10
15 | COc1ncccc1-c1cnn2ccc(NC[C@@H]3CCCN3C(=O)OC(C)C)nc12 [(S)-isopropyl 2-(((3-(2-methoxypyridin-3-yl)pyrazolo[1,5-a]pyrimidin-5-yl)amino)methyl)pyrrolidine-1-carboxylate] | ≤ 10 | ≤ 10
16 | COc1nc(C)ccc1-c1cnn2ccc(N3CC[C@H](N(C)C(=O)OC(C)C)C3)nc12 [(S)-isopropyl (1-(3-(2-d3-methoxy-6-methylpyridin-3-yl)pyrazolo[1,5-a]pyrimidin-5-yl)pyrrolidin-3-yl)(methyl)carbamate] | ≤ 10 | ≤ 100
17 | COc1ncccc1-c1cnn2ccc(N3CC[C@H](N(C)C(=O)OC(C)C)C3)nc12 [(S)-isopropyl (1-(3-(2-methoxypyridin-3-yl)pyrazolo[1,5-a]pyrimidin-5-yl)pyrrolidin-3-yl)(methyl)carbamate] | ≤ 10 | ≤ 100

Row | SMILES | IC50 (AAK1 [1]) [nM] | IC50 (AAK1 [2]) [nM]
18 | COc1ccc(F)cc1-c1cnn2ccc(N3CC[C@H](N(C)C(=O)OC(C)C)C3)nc12 [(S)-isopropyl (1-(3-(5-fluoro-2-methoxyphenyl)pyrazolo[1,5-a]pyrimidin-5-yl)pyrrolidin-3-yl)(methyl)carbamate] | ≤ 10 | ≤ 100
19 | COc1cccc(-c2cnn3ccc(NC[C@@H]4CCCN4C(=O)OC(C)(C)C)nc23)c1 [(S)-tert-butyl 2-(((3-(3-methoxyphenyl)pyrazolo[1,5-a]pyrimidin-5-yl)amino)methyl)pyrrolidine-1-carboxylate] | ≤ 10 | ≤ 10
20 | CC(C)(C)OC(=O)N1CCC[C@H]1CNc1ccn2ncc(-c3ccc(CN)cc3)c2n1 [(S)-tert-butyl 2-(((3-(4-(aminomethyl)phenyl)pyrazolo[1,5-a]pyrimidin-5-yl)amino)methyl)pyrrolidine-1-carboxylate] | ≤ 10 | ≤ 10
21 | COc1ccncc1-c1cnn2ccc(NC[C@@H]3CCCN3C(=O)OC(C)(C)C)nc12 [(S)-tert-butyl 2-(((3-(4-methoxypyridin-3-yl)pyrazolo[1,5-a]pyrimidin-5-yl)amino)methyl)pyrrolidine-1-carboxylate] | ≤ 10 | ≤ 10
22 | COc1ncccc1-c1cnn2ccc(N3CCN(C(=O)O[C@H]4CCOC4)CC3)nc12 [(S)-tetrahydrofuran-3-yl 4-(3-(2-methoxypyridin-3-yl)pyrazolo[1,5-a]pyrimidin-5-yl)piperazine-1-carboxylate] | ≤ 10 | ≤ 10
23 | COc1ncccc1-c1cnn2ccc(NCCCOC(C)(C)C)nc12 [N-(3-(tert-butoxy)propyl)-3-(2-methoxypyridin-3-yl)pyrazolo[1,5-a]pyrimidin-5-amine] | ≤ 10 | ≤ 100
24 | [2H]C([2H])([2H])Oc1ncccc1-c1cnn2ccc(N3CCN(C(=O)OCC)CC3)nc12 [ethyl 4-(3-(2-d3-methoxypyridin-3-yl)pyrazolo[1,5-a]pyrimidin-5-yl)piperazine-1-carboxylate] | ≤ 10 | ≤ 100
25 | CCOC(=O)N1CCN(c2ccn3ncc(-c4cc(C)cnc4OC)c3n2)CC1 [ethyl 4-(3-(2-methoxy-5-methylpyridin-3-yl)pyrazolo[1,5-a]pyrimidin-5-yl)piperazine-1-carboxylate] | ≤ 10 | ≤ 100
26 | CCOC(=O)N1CCN(c2ccn3ncc(-c4ccc(C)nc4OC)c3n2)CC1 [ethyl 4-(3-(2-methoxy-6-methylpyridin-3-yl)pyrazolo[1,5-a]pyrimidin-5-yl)piperazine-1-carboxylate] | ≤ 10 | ≤ 100
27 | CCOC(=O)N1CCN(c2ccn3ncc(-c4cc(F)cnc4OC)c3n2)CC1 [ethyl 4-(3-(5-fluoro-2-methoxypyridin-3-yl)pyrazolo[1,5-a]pyrimidin-5-yl)piperazine-1-carboxylate] | ≤ 10 | ≤ 100
28 | COc1ncc(-c2cnn3ccc(N4CCN(C(=O)OC(C)C)CC4)nc23)c(OC)n1 [isopropyl 4-(3-(2,4-dimethoxypyrimidin-5-yl)pyrazolo[1,5-a]pyrimidin-5-yl)piperazine-1-carboxylate] | ≤ 10 | ≤ 100
29 | COc1cc(C)ccc1-c1cnn2ccc(N3CCN(C(=O)OC(C)C)CC3)nc12 [isopropyl 4-(3-(2-methoxy-4-methylphenyl)pyrazolo[1,5-a]pyrimidin-5-yl)piperazine-1-carboxylate] | ≤ 10 | ≤ 100
30 | COc1ncc(C)cc1-c1cnn2ccc(N3CCN(C(=O)OC(C)C)CC3)nc12 [isopropyl 4-(3-(2-methoxy-5-methylpyridin-3-yl)pyrazolo[1,5-a]pyrimidin-5-yl)piperazine-1-carboxylate] | ≤ 10 | ≤ 10
31 | [2H]C1([2H])N(C(=O)OC(C)C)C([2H])([2H])C([2H])([2H])N(c2ccn3ncc(-c4ccc(C)nc4OC)c3n2)C1([2H])[2H] [isopropyl 4-(3-(2-methoxy-6-methylpyridin-3-yl)pyrazolo[1,5-a]pyrimidin-5-yl)-d8-piperazine-1-carboxylate] | ≤ 10 | ≤ 10
32 | CC(C)OC(=O)N1CCN(c2ccn3ncc(-c4ccc(OCCN)cc4)c3n2)CC1 [isopropyl 4-(3-(4-(2-aminoethoxy)phenyl)pyrazolo[1,5-a]pyrimidin-5-yl)piperazine-1-carboxylate] | ≤ 10 | ≤ 100
33 | CC(C)OC(=O)N1CCN(c2ccn3ncc(-c4ccc(CN)cc4)c3n2)CC1 [isopropyl 4-(3-(4-(aminomethyl)phenyl)pyrazolo[1,5-a]pyrimidin-5-yl)piperazine-1-carboxylate] | ≤ 10 | ≤ 10
